Test results: patent US7250397B2, “Antiarrhythmic peptides” (Zealand Pharma A/S, priority 2000, dated 2007)

What was measured:
[1] = test system: phospho-inositol turnover in neonatal rat cardiomyocytes; assay: Phosphoinositol turnover in rat primary cardiomyocytes; format: cell-based; settings: 100 nM; control conditions
Method: Neonatal Wistar rats (1-2 days old) are used. Hank's calcium- and magnesium-free balanced salt solution, buffered with 10 mM HEPES is used for washing during cell separation procedures. The hearts are excised, the ventricles isolated and the tissue cut into small pieces. The myocardial cells are isolated by stepwise enzymatic degradation with collagenase 0.05%, as described by^[35]. After repeated rounds of centrifugation and washing, the precipitated cells are resuspended in culture medium M199 with Earle's salt, 10% NCS, penicillin (75 U/mL), and streptomycin (75 U/mL) and pre-plated in a Petri dish for 90 minutes. The non-adherent cells are collected in the culture medium and plated in multidishes at 2.5*10^5 cells/well. The cultures are kept in a water-saturated CO2-incubator at 37° C. The cardiomyocyte cultures are used for analyses after 6-7 days.
Cardiomyocyte cultures are incubated for 48 hours in culture medium containing […] myo-[2-^3H]inositol to label the inositol phospholipids. On the day of analysis the medium is replaced by a buffer solution containing lithium and incubated at 37° C., as described by Meier et al.^[36]. After at least five minutes this buffer is replaced by the same volume of buffer containing test compound and incubated for exactly 20 minutes. The reaction is stopped by rapid replacement of the buffer by ice cold 4% v/v perchloric acid (PCA) and incubation for at least 20 minutes at 0° C. The PCA-extract is neutralised and the [^3H]inositol phosphates are separated by anion-exchange chromatography using Amprep™ columns containing 100 mg SAX Quaternary amine. The [^3H]inositol mono-phosphates are eluted and radioactivity in the fraction measured by liquid scintillation counting.
Before adding test substances to the cultures, the cells are depleted of glucose and oxygen by incubating them in a N2-atmosphere in glucose-free lithium-buffer for 10 minutes at 37° C. Control cells are incubated likewise only at normal atmospheric conditions and in a buffer containing glucose.

human osteoblastic cells = assay: Intercellular calcium wave propagation in human osteoblasts; format: cell-based; settings: 10^−8 M; medium without glucose (1.4 cells before); after ATP desensitization
Method: Human osteblast cells (hOB): Cells were isolated from human bone marrow obtained by puncture of the posterior iliac spine of healthy volunteers (aged 20-36): 10-15 ml marrow material was collected in 15 ml PBS+Ca,Mg (Life Technologies, Cat.No. 14040) with 100 U/ml Heparin (Sigma, Cat.No. H-3149). The mononuclear fraction of the marrow was isolated on a Lymphoprep gradient (Nycomed Pharma, Cat.No. 1001967), by centrifugation at 2200 rpm for 30 min. After harvesting, the mononuclear fraction was washed once with culture medium and centrifuged at 1800 rpm for 10 min. Subsequently cells were counted and plated in culture medium at 8×10^6 cells/100 mm dish. hOB medium (all reagents obtained from Life Technologies): MEM w/o Phenol Red w/Glutamax (Cat.No. 041-93013) supplemented with 10% heat inactivated fetal calf serum (Cat.No. 10106) and 0.1% Penicillin/Streptomycin (Cat.No. 15140). Medium was changed the following day and the cells were cultured at 37° C. in 5%CO2 with medium change every 7 days. After 3-4 weeks of culture the cells had reached 70% confluence. The medium was then supplemented with 100 nM Dexamethasone (Sigma, Cat.No. D-4902) for 7 days. […]
Metabolic stress induced by hypoglycemia is also known to decrease gap junctional communication. […] After ATP desensitization as described above, one single cell was stimulated mechanically, and the number of cells in the wave was recorded. […]

ROS 17/2.8 cells = assay: Intercellular calcium wave propagation in ROS 17/2.8 cells; format: cell-based, rat; settings: 10^−8 M, 10 minutes; 48 hours hypoxia 3-6% O2 (2.2 cells before)
Method: ROS 17/2.8 cells: Cells were cultured in 100 mm dishes at 37° C. with 5% CO2 and medium change every 2-3 days. ROS medium (all reagents obtained from Life Technologies) MEM (Cat.No. 31095) supplemented with 10% heat-inactivated calf serum (Cat.No. 16170), 1% NEAA (Cat.No. 11140), 1% Sodium Pyruvate (Cat.No. 11360), 1% L-Glutamine (Cat.No. 25030) and 0.1% Penicillin/Streptomycin (Cat.No. 15140). For video imaging experiments, cells were plated on coverslips at 2-3×10^5 cells/coverslip and cultured for 2-3 days before use.
The cells cultured on coverslips were loaded with 5 μM fura-2-AM (Molecular Probes, Cat.No. F-1221), for 30 minutes at 37° C., and incubated in fresh medium for 20 minutes. Coverslips were then affixed to a PDMI-2 culture chamber (Medical Systems Corp.), maintained at 37° C. with superfused CO2, on a Zeiss Axiovert microscope. Intercellular calcium waves were induced by mechanical stimulation of a single cell using a borosilicate glass micro pipette affixed to an Eppendorf 5171 micromanipulator. Imaging was performed using a MetaMorph imaging system (Universal Imaging). The excitation light (340 and 380 nm) was provided by a monochromator (T.I.L.L. Photonics GmbH). Images were acquired with an intensified CCD camera (Dage MTI) and digitized with a Matrox MVP image processing board. […]

Ac-D-Tyr-D-Pro-D-4Hyp-Gly-D-Ala-Gly-NH2 [Compound 2]
effect on noradrenaline (300 nM) induced increase in phospho-inositol turnover [1]: no further effect | average number of cells in the calcium wave (human osteoblastic cells): 2.9 cells | average number of cells in the calcium wave (ROS 17/2.8 cells): 5.4 cells
